Read-outs that look alike come from different tables or passages of the source.
Molecular target: T1, Trp-p8 (Homo sapiens, UniProt Q7Z2W7, T58I)
T1 construct: expressed in transfected cells; host or cells: CHO (Chinese Hamster Ovary) cells
Test: ATP viability assay with CHO/Trp-p8 cells at 37° C.
Type: cell-based
Conditions: CHO/Trp-p8 cells, 24-26 hours at 37° C., 50% reduction in relative cell viability, read-out: EC50
Text: Human Trp-p8 transfected CHO cells (referred to herein as CHO/Trp-p8) were generated for use in experiments of the present invention. Expression of Trp-p8 polypeptide in this transfectant and the absence of any endogenous expression in the non-transfected CHO was confirmed by western blot and immunofluorescence using a Trp-p8 specific antibody (GS2.20) as well as the calcium flux assay with Icilin (1-[2-hydroxyphenyl]-4-[3-nitrophenyl]-1,2,3,6-tetrahydropyrimidine-2-one) and menthol (2-isopropyl-5-methyl-cyclohexanol). Non-transfected CHO cells were used to establish the specificity of the effects of the compounds observed with CHO/Trp-p8.
This Example discloses an ATP viability assay suitable for screening for effective Trp-p8 agonists. The ATP viability assay described herein employs CHO cells expressing an exogenous Trp-p8 cDNA. This example further establishes that Trp-p8 agonists of the present invention are effective in decreasing the viability of Trp-p8 expressing cells.
The concentration of intracellular ATP declines very rapidly when metabolically active cells undergo necrosis and/or apoptosis. The ATP concentration and consequently the relative cell viability can be measured by established methods using commercially available reagents. In the agonist screening methodology disclosed herein, a compound that specifically decreases the viability of CHO/Trp-p8 cells is referred to as an agonist.
As a primary screen for efficacy and specificity for agonists, both the non-transfected CHO and CHO/Trp-p8 cells were exposed to 1 or 10 μM of test compounds in 1% dimethylsulfoxide (DMSO) or 1% DMSO (control) in a 96-well black walled, black-bottomed, cell-culture treated plate. DMSO was the solvent for all of the compounds tested. After 24-26 hours at 37° C., the cells were lysed and ATP concentration determined via a chemiluminescence assay using a commercially available reagent kit—Cell Titer-Glo (Promega; Madison, Wis.). […] (EC50 is defined herein as the agonist concentration at which there is a 50% reduction in relative cell viability).

T1 sequence (Q7Z2W7 whole entry T58I): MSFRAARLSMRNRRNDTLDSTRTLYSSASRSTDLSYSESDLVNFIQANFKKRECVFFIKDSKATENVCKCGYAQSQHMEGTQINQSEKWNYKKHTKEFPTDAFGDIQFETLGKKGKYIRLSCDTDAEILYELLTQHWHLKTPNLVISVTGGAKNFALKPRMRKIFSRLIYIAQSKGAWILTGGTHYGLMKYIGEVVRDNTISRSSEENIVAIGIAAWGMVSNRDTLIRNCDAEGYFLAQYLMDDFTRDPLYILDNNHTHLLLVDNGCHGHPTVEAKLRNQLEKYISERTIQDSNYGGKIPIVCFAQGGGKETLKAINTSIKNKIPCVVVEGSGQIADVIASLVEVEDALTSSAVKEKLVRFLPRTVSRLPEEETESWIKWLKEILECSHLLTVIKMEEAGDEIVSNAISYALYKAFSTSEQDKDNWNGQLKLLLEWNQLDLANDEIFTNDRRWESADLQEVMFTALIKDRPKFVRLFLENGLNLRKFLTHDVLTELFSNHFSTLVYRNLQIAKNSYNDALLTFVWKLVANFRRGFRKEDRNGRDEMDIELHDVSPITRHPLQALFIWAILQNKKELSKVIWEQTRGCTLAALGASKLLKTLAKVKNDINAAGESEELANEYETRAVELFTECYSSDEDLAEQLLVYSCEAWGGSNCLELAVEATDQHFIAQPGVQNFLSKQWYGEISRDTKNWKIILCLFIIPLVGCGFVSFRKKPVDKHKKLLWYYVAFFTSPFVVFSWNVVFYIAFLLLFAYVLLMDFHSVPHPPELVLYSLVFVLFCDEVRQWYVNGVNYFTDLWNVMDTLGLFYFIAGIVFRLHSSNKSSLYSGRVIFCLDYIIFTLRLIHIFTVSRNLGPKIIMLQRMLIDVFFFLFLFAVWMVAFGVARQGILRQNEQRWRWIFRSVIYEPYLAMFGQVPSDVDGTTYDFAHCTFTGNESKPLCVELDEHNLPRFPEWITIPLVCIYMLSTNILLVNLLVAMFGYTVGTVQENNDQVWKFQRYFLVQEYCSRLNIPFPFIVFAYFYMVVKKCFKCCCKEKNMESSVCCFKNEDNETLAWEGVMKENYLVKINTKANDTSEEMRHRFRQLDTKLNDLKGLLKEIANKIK

SMILES: CC(C)[C@@H]1CC[C@@H](C)C[C@H]1C(=O)Nc1cc(-c2ccc(N)cc2)nn1CCN [Compound 19]
- EC50 (Table 2, Formula I-B): 21 to 50 nM

SMILES: CCN(CC)CCNC(=O)c1cccc2c1n(CCN)c(=O)n2C(=O)[C@@H]1C[C@H](C)CC[C@H]1C(C)C [Compound 55]
- EC50 (Table 5, Formula I-E): 21 to 50 nM

SMILES: COc1cccc(-c2cc(NC(=O)[C@@H]3C[C@H](C)CC[C@H]3C(C)C)n(CCN)n2)c1 [Compound 24]
- EC50 (Table 2, Formula I-B): 21 to 50 nM

SMILES: CC(C)[C@@H]1CC[C@@H](C)C[C@H]1C(=O)NC[C@@H](OCCN)c1ccccc1 [Compound 29]
- EC50 (Table 3, Formula I-C): < 20 nM

SMILES: CC(C)[C@@H]1CC[C@@H](C)C[C@H]1C(=O)Nc1cc(-c2cccc(N)c2)nn1CCN [Compound 26]
- EC50 (Table 2, Formula I-B): 51 to 100 nM

SMILES: CCN(CC)CCNC(=O)c1ccc2c(c1)n(CCN)c(=O)n2C(=O)[C@@H]1C[C@H](C)CC[C@H]1C(C)C [Compound 44, 3-(2-Amino-ethyl)-1-(2-isopropyl-5-methylcyclohexanecarbonyl)-2-oxo-2,3-dihydro-1H-benzoimidazole-5-carboxylic acid (2-diethylamino-ethyl)amide]
- EC50 (Table 5, Formula I-E): < 20 nM

SMILES: CNCCn1c(=O)n(C(=O)[C@@H]2C[C@H](C)CC[C@H]2C(C)C)c2ccccc21 [Compound 66]
- EC50 (Table 5, Formula I-E): 21 to 50 nM

SMILES: CC(C)[C@@H]1CC[C@@H](C)C[C@H]1C(=O)n1c(=O)n(CCN)c2cc(OCC(=O)c3ccccc3)ccc21 [Compound 65]
- EC50 (Table 5, Formula I-E): 21 to 50 nM

SMILES: CC(C)[C@@H]1CC[C@@H](C)C[C@H]1C(=O)Nc1cc(-c2ccc(O)cc2)nn1CCN [Compound 20]
- EC50 (Table 2, Formula I-B): 21 to 50 nM

SMILES: COc1ccc2c(c1)n(CCN)c(=O)n2C(=O)[C@@H]1C[C@H](C)CC[C@H]1C(C)C [Compound 36, 3-(2-Aminoethyl)-1-(2-isopropyl-5-methylcyclohexanecarbonyl)-5-methoxy-1,3-dihydro-benzoimidazol-2-one]
- EC50 (Table 5, Formula I-E): < 20 nM

SMILES: CC(C)[C@@H]1CC[C@@H](C)C[C@H]1C(=O)n1c(=O)n(CCN)c2cc(C(=O)NCCO)ccc21 [Compound 52]
- EC50 (Table 5, Formula I-E): < 20 nM

SMILES: COc1ccc(NC(=O)[C@@H]2C[C@H](C)CC[C@H]2C(C)C)c(NC(=O)[C@@H](N)CO)c1 [Compound 10]
- EC50 (Table 1, Formula I-A): 21 to 50 nM

SMILES: CC(C)[C@@H]1CC[C@@H](C)C[C@H]1C(=O)n1c(=O)n(CCN)c2cc(OCCO)ccc21 [Compound 40, 3-(2-aminoethyl)-5-(2-hydroxyethoxy)-1-(2-isopropyl-5-methylcyclohexanecarbonyl)-1,3-dihydro-benzoimidazol-2-one]
- EC50 (Table 5, Formula I-E): < 20 nM

SMILES: CCNC(=O)c1ccc2c(c1)n(CCN)c(=O)n2C(=O)[C@@H]1C[C@H](C)CC[C@H]1C(C)C (stereo in doubt) [Compound 47, 3-(2-Amino-ethyl)-1-(2-isopropyl-5-methylcyclohexanecarbonyl)-2-oxo-2,3-dihydro-1H-benzoimidazole-5-carboxylic acid ethyl amide]
- EC50 (Table 5, Formula I-E): < 20 nM

SMILES: CC(C)[C@@H]1CC[C@@H](C)C[C@H]1C(=O)n1c(=O)n(CCN)c2cnccc21 [Compound 54]
- EC50 (Table 5, Formula I-E): 21 to 50 nM

SMILES: CC(C)[C@@H]1CC[C@@H](C)C[C@H]1C(=O)n1c(=O)n(CCN)c2cc(C(N)=O)ccc21 [Compound 41, 3-(2-Amino-ethyl)-1-(2-isopropyl-5-methyl-cyclohexanecarbonyl)-2-oxo-2,3-dihydro-1H-benzoimidazole-5-carboxylic acid amide]
- EC50 (Table 5, Formula I-E): < 20 nM

SMILES: CC(C)[C@@H]1CC[C@@H](C)C[C@H]1C(=O)n1c(=O)n(CCN)c2cc(C(=O)NC(CO)CO)ccc21 [Compound 74]
- EC50 (Table 5, Formula I-E): 51 to 100 nM

SMILES: CC(C)[C@@H]1CC[C@@H](C)C[C@H]1C(=O)n1c(=O)n(CCN)c2cc(OCc3ccccc3)ccc21 [Compound 75]
- EC50 (Table 5, Formula I-E): 51 to 100 nM

SMILES: CC(C)[C@@H]1CC[C@@H](C)C[C@H]1C(=O)Nc1ccccc1NC(=O)CN [Compound 11]
- EC50 (Table 1, Formula I-A): 51 to 100 nM

SMILES: CC(C)[C@@H]1CC[C@@H](C)C[C@H]1C(=O)n1c(=O)n(CCN)c2cc(C(=O)Nc3ccccc3)ccc21 [Compound 59]
- EC50 (Table 5, Formula I-E): 21 to 50 nM

SMILES: CC(C)[C@@H]1CC[C@@H](C)C[C@H]1C(=O)n1c(=O)n(CCN)c2cc(C(=O)NCc3ccccc3)ccc21 [Compound 63]
- EC50 (Table 5, Formula I-E): 21 to 50 nM

SMILES: CC(C)[C@@H]1CC[C@@H](C)C[C@H]1C(=O)Nc1cc(-c2cccc(O)c2)nn1CCN [Compound 27]
- EC50 (Table 2, Formula I-B): 51 to 100 nM
